This passage reports IC50 results from ChEMBL document CHEMBL5729348, “Heterocyclic compounds for the inhibition of PASK” (2022).

The assay deals with PAS domain-containing serine/threonine-protein kinase (Homo sapiens, UniProt Q96RG2). In words: PAS Kinase FRET Assay: The aim of the FRET assay is to determine the inhibition potential of test compounds on targeted kinase. This assay platform provides a homogenous screening method for measuring kinase activity by quantitating the amount of phospho-substrate in solution following a kinase reaction.In the presence of kinase and ATP, the Ulight-peptide is phosphorylated and captured by an anti-phospho-substrate antibody, which brings the Eu chelate donor and Ulight acceptor dyes into close proximity. Upon excitation at 340 nm, the Eu chelate transfers its energy to the Ulight dye, resulting in a fluorescent light emission at 665 nm.Titration of kinase at 1 mM ATP was achieved via the following protocol. After making serial three-fold dilutions of PASK (Invitrogen) in reaction buffer across the plate; 5 μl of kinase dilution and 5 μl substrate/ATP mix were added to the wells of the white Optiplate-384 (PerkinElmer). The contents of the plate were and incubated at RT for 1 h. The reaction was stopped by adding 5 μl of stop solution to each test well followed by mixing and incubation at RT for 10 minutes. 5 μl of detection mix (detection antibody diluted in detection buffer) was added; the contents of the plate were mixed and then incubated in the dark for 1 hour at RT. The signal was recorded at TR-FRET mode (665 nm/615 nm). The results were graphed to calculate the EC50. […].
Chain of PAS domain-containing serine/threonine-protein kinase (Q96RG2 whole entry, the tested form may be a part): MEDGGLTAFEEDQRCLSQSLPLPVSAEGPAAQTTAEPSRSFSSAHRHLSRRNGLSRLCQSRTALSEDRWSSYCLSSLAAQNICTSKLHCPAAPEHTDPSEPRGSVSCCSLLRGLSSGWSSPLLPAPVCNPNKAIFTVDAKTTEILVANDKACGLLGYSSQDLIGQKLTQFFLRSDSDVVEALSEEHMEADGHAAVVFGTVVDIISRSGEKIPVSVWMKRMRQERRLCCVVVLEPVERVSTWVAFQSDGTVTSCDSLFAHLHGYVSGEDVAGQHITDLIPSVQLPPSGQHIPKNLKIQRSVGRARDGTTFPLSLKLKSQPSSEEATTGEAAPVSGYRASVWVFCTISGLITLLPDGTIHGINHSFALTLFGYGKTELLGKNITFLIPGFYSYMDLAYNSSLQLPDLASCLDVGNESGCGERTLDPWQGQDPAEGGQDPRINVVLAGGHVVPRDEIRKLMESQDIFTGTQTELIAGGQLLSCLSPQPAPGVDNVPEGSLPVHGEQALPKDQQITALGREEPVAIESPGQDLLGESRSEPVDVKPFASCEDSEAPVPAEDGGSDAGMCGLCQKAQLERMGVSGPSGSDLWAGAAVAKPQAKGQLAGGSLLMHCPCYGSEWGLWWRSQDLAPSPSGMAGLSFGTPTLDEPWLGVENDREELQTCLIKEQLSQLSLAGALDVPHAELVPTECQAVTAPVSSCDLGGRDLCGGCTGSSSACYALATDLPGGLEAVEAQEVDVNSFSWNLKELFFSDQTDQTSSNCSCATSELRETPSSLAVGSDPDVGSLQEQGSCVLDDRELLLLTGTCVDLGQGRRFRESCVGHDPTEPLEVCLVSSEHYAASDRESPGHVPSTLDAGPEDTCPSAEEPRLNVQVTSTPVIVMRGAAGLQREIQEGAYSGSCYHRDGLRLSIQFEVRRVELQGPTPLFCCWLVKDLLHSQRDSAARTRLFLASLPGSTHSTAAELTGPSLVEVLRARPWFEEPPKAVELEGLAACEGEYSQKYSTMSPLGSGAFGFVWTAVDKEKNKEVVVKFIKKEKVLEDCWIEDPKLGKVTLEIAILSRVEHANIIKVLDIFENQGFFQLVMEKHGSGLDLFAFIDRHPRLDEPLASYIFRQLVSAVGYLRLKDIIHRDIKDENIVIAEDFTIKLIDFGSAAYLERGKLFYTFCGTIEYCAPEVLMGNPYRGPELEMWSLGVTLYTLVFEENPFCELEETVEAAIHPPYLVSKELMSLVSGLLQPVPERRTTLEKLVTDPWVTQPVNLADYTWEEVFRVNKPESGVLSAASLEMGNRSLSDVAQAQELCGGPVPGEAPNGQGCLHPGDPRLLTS

With `CN(c1nc2cc(C(=O)O)ccc2nc1-c1ccc(F)cc1)C1CCNCC1`, the concentration for half-maximal inhibition (IC50) is less than 10 µM.
